Legend:
[1] = biological target: human TASK-1 (hTASK-1, hK2P3.1) (Homo sapiens, UniProt O14649); assay: two-electrode voltage clamp in Xenopus oocytes at […]; type: cell-based; details: read-out: % of control current at 100 μmol/L
porcine TASK-1 (pTASK-1) = porcine TASK-1 (pTASK-1) (Sus scrofa, UniProt A0A286ZMZ4); assay: as above; type: cell-based; details: read-out: % of control current at 100 μmol/L
Chain of porcine TASK-1 (pTASK-1) (A0A286ZMZ4 1-401): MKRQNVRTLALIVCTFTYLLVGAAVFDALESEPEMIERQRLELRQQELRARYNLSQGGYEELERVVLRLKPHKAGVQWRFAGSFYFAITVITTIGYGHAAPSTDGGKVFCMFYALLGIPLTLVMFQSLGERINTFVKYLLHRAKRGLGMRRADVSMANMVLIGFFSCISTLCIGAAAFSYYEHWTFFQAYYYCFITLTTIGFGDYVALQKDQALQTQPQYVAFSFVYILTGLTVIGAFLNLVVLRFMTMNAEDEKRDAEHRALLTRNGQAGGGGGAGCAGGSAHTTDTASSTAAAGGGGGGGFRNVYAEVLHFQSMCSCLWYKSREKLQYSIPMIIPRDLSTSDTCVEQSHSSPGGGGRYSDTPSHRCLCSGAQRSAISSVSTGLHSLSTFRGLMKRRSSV

Chain of human TASK-1 (hTASK-1, hK2P3.1) (O14649 whole entry): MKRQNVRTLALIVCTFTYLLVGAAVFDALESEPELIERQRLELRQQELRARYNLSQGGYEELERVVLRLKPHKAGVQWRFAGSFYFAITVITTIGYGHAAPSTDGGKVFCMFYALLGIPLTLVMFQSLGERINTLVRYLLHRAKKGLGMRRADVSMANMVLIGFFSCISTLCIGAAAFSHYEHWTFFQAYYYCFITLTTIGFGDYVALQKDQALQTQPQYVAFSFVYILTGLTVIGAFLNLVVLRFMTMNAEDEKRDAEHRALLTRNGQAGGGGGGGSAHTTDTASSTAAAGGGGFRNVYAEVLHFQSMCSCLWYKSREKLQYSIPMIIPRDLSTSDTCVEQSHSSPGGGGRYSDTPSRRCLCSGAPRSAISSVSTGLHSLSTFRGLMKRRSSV

remaining activity at 100 µM [1]: 21.3 ± 8.7%
remaining activity at 100 µM (porcine TASK-1 (pTASK-1)): 28 ± 6.8%
Structure (SMILES): CCCCS(=O)(=O)Nc1ccccc1C(=O)N[C@H](CC)c1ccc(OC)nc1 [A293, 2‐(butylsulfonylamino)‐N‐[(1R)‐1‐(6‐methoxy‐3‐pyridyl)propyl]‐benzamide]

Source: PMC7660874 (Journal of the American Heart Association: Cardiovascular …, 2020)
